Legend:
DgSTING = experiment: EMSA titration with […]-labeled ligand; assay type: binding, Diaphanoeca grandis
SdSTING = experiment: EMSA titration with […]-labeled ligand; assay type: binding, Stephanoeca diplocostata

Kd (DgSTING): 0.59 µM | Kd (SdSTING): 1.75 µM
SMILES: Nc1nc2c(ncn2[C@@H]2O[C@@H]3COP(=O)(O)O[C@H]4[C@@H](O)[C@H](n5cnc6c(=O)[nH]c(N)nc65)O[C@@H]4COP(=O)(O)O[C@H]3[C@H]2O)c(=O)[nH]1 [3′3′-c-di-GMP]
